Test results: ChEMBL document CHEMBL1125671, “Synthesis and antiviral activity of enantiomeric forms of cyclobutyl nucleoside analogues” (1991)

How the values were obtained:
Type in all cases: functional
Mus musculus [1] = experiment: Subcutaneous efficacy in a mouse cytomegalovirus infection at 100 mg/kg/day dose; Value expressed as survivors/total tested = 10/10
Human alphaherpesvirus 3 = experiment: compound was tested for antiherpes activity against VZV(Ellen) in tissue culture by plaque reduction assay; details: read-out: ID50 (the source's name)
Mus musculus [2] = experiment: Subcutaneous efficacy in a mouse cytomegalovirus infection at 25 mg/kg/day dose; Value expressed as survivors/total tested = 9/10
Mus musculus [3] = experiment: subcutaneous efficacy of compound in a lethal MCMV infection on mouse; details: sc, read-out: PD50
Mus musculus [4] = experiment: Subcutaneous efficacy in a mouse cytomegalovirus infection at 12.5 mg/kg/day dose; Value expressed as survivors/total tested = 5/10
Mus musculus [5] = experiment: Subcutaneous efficacy in a mouse cytomegalovirus infection at 50 mg/kg/day; Value expressed as survivors/total tested = 9/10
Human alphaherpesvirus 2 = experiment: compound was tested for antiherpes activity against HSV-2(186) in tissue culture by plaque reduction assay; details: read-out: ID50 (the source's name)
Human betaherpesvirus 5 = experiment: compound was tested for antiherpes activity against HCMV(AD 169) in tissue culture by plaque reduction assay; details: read-out: ID50 (the source's name)
Murid betaherpesvirus 1 = experiment: compound was tested for antiherpes activity against MCMV(Smith) in tissue culture by plaque reduction assay; details: read-out: ID50 (the source's name)
Mus musculus [6] = experiment: Mean day of death for total no. of dead mouse at 25 mg/kg/day dose
Mus musculus [7] = experiment: Mean day of death for total no. of dead mouse at 50 mg/kg/day dose
Mus musculus [8] = experiment: Mean day of death for total no. of dead mouse at 12.5 mg/kg/day dose
Human alphaherpesvirus 1 = experiment: compound was tested for antiherpes activity against HSV-1(Schooler) in tissue culture by plaque reduction assay; details: read-out: ID50 (the source's name)
Mus musculus [9] = experiment: oral efficacy in a mouse cytomegalovirus infection at 100 mg/kg/day dose; Value expressed as survivors/total tested = 10/10
Mus musculus [10] = experiment: oral efficacy in a mouse cytomegalovirus infection at 25 mg/kg/day dose; Value expressed as survivors/total tested = 3/10
Mus musculus [11] = experiment: Subcutaneous efficacy in a mouse cytomegalovirus infection at 12.5 mg/kg/day dose; Value expressed as survivors/total tested = 4/10
Mus musculus [12] = experiment: Mean day of death for total no. of dead mouse at 12.5 mg/kg/day dosep<0.05
Mus musculus [13] = experiment: oral efficacy in a mouse cytomegalovirus infection at 50 mg/kg/day dose; Value expressed as survivors/total tested = 6/10
Mus musculus [14] = experiment: Subcutaneous efficacy in a mouse cytomegalovirus infection at 6.3 mg/kg/day dose; Value expressed as survivors/total tested = 4/10
Mus musculus [15] = experiment: oral efficacy in a mouse cytomegalovirus infection at 12.5 mg/kg/day dose; Value expressed as survivors/total tested = 1/10
Mus musculus [16] = experiment: Subcutaneous efficacy in a mouse cytomegalovirus infection at 25 mg/kg/day dose; Value expressed as survivors/total tested = 10/10
Mus musculus [17] = experiment: Mean day of death for total no. of dead mouse at 6.3 mg/kg/day dose
Mus musculus [18] = experiment: Subcutaneous efficacy in a mouse cytomegalovirus infection at 50 mg/kg/day dose; Value expressed as survivors/total tested = 10/10
Mus musculus [19] = experiment: oral efficacy in a mouse cytomegalovirus infection at 25 mg/kg/day dose; Value expressed as survivors/total tested = 1/10
Mus musculus [20] = experiment: Subcutaneous efficacy in a mouse cytomegalovirus infection at 12.5 mg/kg/day dose; Value expressed as survivors/total tested = 7/10
Mus musculus [21] = experiment: oral efficacy in a mouse cytomegalovirus infection at 50 mg/kg/day dose; Value expressed as survivors/total tested = 5/10
Mus musculus [22] = experiment: Mean day of death for total no. of dead mouse at 25 mg/kg/day dosep<0.05

| SMILES | Survivors alive/total (Mus musculus [1]) | IC50 (Human alphaherpesvirus 3) | IC50 (Human alphaherpesvirus 2) | IC50 (Human betaherpesvirus 5) | IC50 (Murid betaherpesvirus 1) | Mean day of death for total dead (Mus musculus [7]) | Mean day of death for total dead (Mus musculus [8]) | IC50 (Human alphaherpesvirus 1) | other results |
| --- | --- | --- | --- | --- | --- | --- | --- | --- | --- |
| Nc1nc(O)c2ncn(C3C[C@@H](CO)[C@@H]3CO)c2n1 (stereo partly specified) | 10 | 20 nM | 20 nM | 800 nM | 200 nM | 6 | 5.4 | 20 nM | Survivors alive/total (Mus musculus [2]): 9; ED50 (Mus musculus [3]): 10 mg/kg/day; Survivors alive/total (Mus musculus [4]): 5; Survivors alive/total (Mus musculus [5]): 9; Mean day of death for total dead (Mus musculus [6]): 4 |
| Nc1ncnc2c1ncn2C1C[C@H](CO)C1CO (stereo partly specified) |  | > 400000 nM | > 400000 nM | > 400000 nM |  |  |  | > 400000 nM |  |
| Nc1ncnc2c1ncn2C1C[C@@H](CO)[C@@H]1CO (stereo partly specified) | 10 | 2000 nM | 2000 nM | < 400 nM | 800 nM | 6.3 | 3.9 | 2000 nM | Survivors alive/total (Mus musculus [9]): 10; Survivors alive/total (Mus musculus [10]): 3; Survivors alive/total (Mus musculus [11]): 4; Mean day of death for total dead (Mus musculus [12]): 8.8; Survivors alive/total (Mus musculus [13]): 6; Survivors alive/total (Mus musculus [14]): 4; Survivors alive/total (Mus musculus [15]): 1; Survivors alive/total (Mus musculus [16]): 10; Mean day of death for total dead (Mus musculus [17]): 4.4; Survivors alive/total (Mus musculus [18]): 10; Mean day of death for total dead (Mus musculus [6]): 3.6 |
| Nc1ncnc2c1ncn2C1CC(CO)C1CO (stereo unspecified) |  | 2000 nM | 8000 nM | 800 nM | 2000 nM |  |  | 8000 nM |  |
| Nc1nc(O)c2ncn(C3CC(CO)C3CO)c2n1 (stereo unspecified) |  | 200 nM | 40 nM | 4000 nM | 2000 nM |  |  | 80 nM |  |
| Nc1nc(O)c2ncn([C@H]3CC(CO)[C@@H]3CO)c2n1 (single isomer, unassigned) |  | > 377000 nM | > 377000 nM | > 377000 nM |  |  |  | > 377000 nM |  |
| Nc1nc2c(ncn2COC(CO)CO)c(=O)[nH]1 [GANCICLOVIR] | 10 | 2000 nM | 40 nM | 2000 nM | 4000 nM | 4.4 | 3.6 | 40 nM | Survivors alive/total (Mus musculus [19]): 1; Survivors alive/total (Mus musculus [20]): 7; Survivors alive/total (Mus musculus [21]): 5; Mean day of death for total dead (Mus musculus [12]): 5.7; Mean day of death for total dead (Mus musculus [22]): 4.8; Survivors alive/total (Mus musculus [15]): 1; Survivors alive/total (Mus musculus [16]): 10; Survivors alive/total (Mus musculus [18]): 10 |
